Measured values taken from patent US4166114A, “Aminoglycoside antibiotic derivatives and method of use” (Shionogi & Co., Ltd., priority 1976, dated 1979).
In brackets after ≈: the same amount, converted by molar mass. Where two headings read alike, the source gives them in different places.

How the values were obtained:
Proteus mirabilis TB-617 = test: MIC (minimum inhibitory concentration); assay type: cell-based
Escherichia coli TB-705 = test: MIC (minimum inhibitory concentration); assay type: cell-based; conditions: TB705, Table 3
[1] = test system: Pseudomonas aeruginosa PP-6; test: MIC (minimum inhibitory concentration); conditions: tobramycin resistant organism
[2] = test system: Pseudomonas aeruginosa TM-121; test: MIC (minimum inhibitory concentration)
[3] = test system: Staphylococcus aureus ATCC 25923; test: MIC (minimum inhibitory concentration)
[4] = test system: Escherichia coli W-677/JR 762; test: MIC (minimum inhibitory concentration)
[5] = test system: Escherichia coli W-677/JR 214; test: MIC (minimum inhibitory concentration); conditions: tobramycin resistant organism
[6] = test system: Klebsiella pneumoniae Kl-38; test: MIC (minimum inhibitory concentration)
[7] = test system: Staphylococcus aureus 80285; test: MIC (minimum inhibitory concentration)
[8] = test system: Enterobacter cloacae CI-83; test: MIC (minimum inhibitory concentration); conditions: CI83
[9] = test system: Serratia marcescens MA-26; test: MIC (minimum inhibitory concentration); conditions: MA26
[10] = test system: Citrobacter freundii Ct-31; test: MIC (minimum inhibitory concentration); conditions: CT31
Proteus rettgeri Ret 33 = test: MIC (minimum inhibitory concentration); conditions: Providencia rettgeri, RET33
[11] = literature (Kawaguchi et al.; Fujisawa et al.); cited from earlier work
[12] = test system: kanamycin resistant bacteria; conditions: literature (Kawaguchi et al.; Fujisawa et al.); cited from earlier work
[13] = Proteus mirabilis, TB617, Table 2, read-out: MIC
[14] = Proteus mirabilis, TB617, Table 3, read-out: MIC
[15] = Pseudomonas aeruginosa, PP6, Table 2
[16] = Pseudomonas aeruginosa, PP6, Table 3
[17] = Staphylococcus aureus, ATCC25923
[18] = Escherichia coli, W677/JR214, Table 2
[19] = Escherichia coli, W677/JR214, Table 3
[20] = Klebsiella pneumoniae, KL38, Table 2
[21] = Klebsiella pneumoniae, KL38, Table 3
[22] = Table 2, tobramycin resistant organism

Molecule | MIC (Proteus mirabilis TB-617; [13]) [µg/mL] | MIC (Proteus mirabilis TB-617; [14]) [µg/mL] | MIC (Escherichia coli TB-705) [µg/mL] | MIC [1, 15] [µg/mL] | MIC [1, 16] [µg/mL] | MIC ([2]; Pseudomonas aeruginosa, TM121) [µg/mL] | MIC [3, 17] [µg/mL] | MIC ([4]; Escherichia coli, W677/JR762) [µg/mL] | MIC [5, 18] [µg/mL] | MIC [5, 19] [µg/mL] | MIC [6, 20] [µg/mL] | MIC [6, 21] [µg/mL] | MIC [7] [µg/mL] | MIC [8] [µg/mL] | MIC [9] [µg/mL] | MIC [10] [µg/mL] | MIC (Proteus rettgeri Ret 33) [µg/mL] | other results
NC[C@H]1O[C@H](O[C@H]2[C@H](O)[C@@H](O[C@H]3O[C@H](CO)[C@@H](O)[C@H](N)[C@H]3O)[C@H](NC(=O)C3(O)CCNCC3)C[C@@H]2N)[C@H](N)C[C@@H]1O [TOB der.] | 6.25 (≈ 10.5 µM) | 1.56 (≈ 2.62 µM) | 3.13 (≈ 5.26 µM) | 6.25 (≈ 10.5 µM) | 3.13 (≈ 5.26 µM) | 12.5 (≈ 21 µM) | 1.56 (≈ 2.62 µM) | 6.25 (≈ 10.5 µM) | 1.56 (≈ 2.62 µM) | 0.78 (≈ 1.31 µM) | 1.56 (≈ 2.62 µM) | 0.78 (≈ 1.31 µM) | 0.39 (≈ 0.656 µM) | 0.78 (≈ 1.31 µM) | 12.5 (≈ 21 µM) | 0.78 (≈ 1.31 µM) | 0.78 (≈ 1.31 µM) | –
gentamicin [GM] | – | – | – | – | – | – | – | – | – | – | – | – | – | – | – | – | – | MIC (Proteus mirabilis TB-617; Table 2): 25 µg/mL; MIC ([1]; Table 2): > 200 µg/mL; MIC [2, 22]: 100 µg/mL; MIC ([3]; Table 2): 0.78 µg/mL; MIC [4, 22]: 100 µg/mL; MIC ([5]; Table 2): 100 µg/mL; MIC ([6]; Table 2): 0.78 µg/mL
NC[C@H]1O[C@H](O[C@H]2[C@H](O)[C@@H](O[C@H]3O[C@H](CO)[C@@H](O)[C@H](N)[C@H]3O)[C@H](N)C[C@@H]2N)[C@H](N)C[C@@H]1O [TOB, tobramycin] | 12.5 (≈ 26.7 µM) | 12.5 (≈ 26.7 µM) | 6.25 (≈ 13.4 µM) | 50 (≈ 107 µM) | > 100 | 100 (≈ 214 µM) | 1.56 (≈ 3.34 µM) | 100 (≈ 214 µM) | 50 (≈ 107 µM) | 100 (≈ 214 µM) | 3.13 (≈ 6.69 µM) | 1.56 (≈ 3.34 µM) | 0.78 (≈ 1.67 µM) | 0.78 (≈ 1.67 µM) | 50 (≈ 107 µM) | 3.13 (≈ 6.69 µM) | 1.56 (≈ 3.34 µM) | –
NC[C@H]1O[C@H](O[C@H]2[C@H](O)[C@@H](O[C@H]3O[C@H](CO)[C@@H](O)[C@H](N)[C@H]3O)[C@H](NC(=O)C3(O)CCNC3)C[C@@H]2N)[C@H](O)[C@@H](O)[C@@H]1O (some centres unmarked) [KM-A der., 1-N-(3-hydroxypyrrolidine-3-carbonyl)-kanamycin A] | – | 6.25 (≈ 10.5 µM) | 25 (≈ 41.8 µM) | – | 12.5 (≈ 20.9 µM) | – | – | – | – | 6.25 (≈ 10.5 µM) | – | 3.13 (≈ 5.24 µM) | 12.5 (≈ 20.9 µM) | 3.13 (≈ 5.24 µM) | 6.25 (≈ 10.5 µM) | 3.13 (≈ 5.24 µM) | 1.56 (≈ 2.61 µM) | –
NCC[C@H](O)C(=O)N[C@@H]1C[C@H](N)[C@@H](O[C@H]2O[C@H](CN)[C@@H](O)[C@H](O)[C@H]2O)[C@H](O)[C@H]1O[C@H]1O[C@H](CO)[C@@H](O)[C@H](N)[C@H]1O [Amikacin, amikacin] | – | – | – | – | – | – | – | – | – | – | – | – | – | – | – | – | – | toxicity compared with kanamycin [11]: approximately the same degree of the toxicity as kanamycin; effectiveness against kanamycin resistant bacteria [12]: effective against kanamycin resistant bacteria
CN[C@@H]1[C@@H](O)[C@@H](O[C@@H]2[C@@H](O)[C@H](O[C@H]3OC(CN)=CC[C@H]3N)[C@@H](N)C[C@H]2N)OC[C@]1(C)O [SSM, sisomicin] | 12.5 (≈ 27.9 µM) | – | – | 200 (≈ 447 µM) | – | 200 (≈ 447 µM) | 1.56 (≈ 3.49 µM) | 50 (≈ 112 µM) | 25 (≈ 55.9 µM) | – | 0.39 (≈ 0.871 µM) | – | – | – | – | – | – | –
NC[C@H]1O[C@H](O[C@H]2[C@H](O)[C@@H](O[C@H]3O[C@H](CO)[C@@H](O)[C@H](N)[C@H]3O)[C@H](N)C[C@@H]2N)[C@H](O)[C@@H](O)[C@@H]1O [KM-A, kanamycin A] | > 200 | > 100 | > 100 | 200 (≈ 413 µM) | > 100 | > 200 | 6.25 (≈ 12.9 µM) | > 200 | > 200 | > 100 | > 200 | > 100 | > 100 | > 100 | > 100 | > 100 | > 100 | –
